This note sets out measurements from ChEMBL document CHEMBL1201862, “PubChem BioAssay data set” (2004).

The structures appear in SMILES notation.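 1) Cells in 96-well plates. 2) Compound, 48 h, 5 concentrations. 3) Linear interpolation between surrounding doses. 4) Unreached endpoint = highest concentration. GI50 is the concentration that inhibits growth by half.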 The source made the active and inactive calls. Rule as the data show it: active = GI50 up to about 1.1 µM and inactive = higher. Some results are limits rather than exact numbers.

What all share (experiment): NCI tumour cell line growth inhibition, 48 h
Assay [1] relates to ACHN.
Assay [2] concerns CAKI-1.
The subject of assay [3] is COLO 205.
Assay [4] relates to HCT-15.
Assay [5] concerns HOP-62.
Assay [6] concerns KM-20L2.
Assay [7] concerns KM12.
For assay [8], the system named is LOX IMVI.
Assay [9] has as its system MOLT-4.
Assay [10] deals with Malme-3M.
Assay [11] relates to OVCAR-3.
In assay [12] the test system is RXF 393.
The test system of assay [13] is SK-MEL-2.
Assay [14] concerns SNB-19.
Assay [15] relates to UACC-62.
Assay [16] deals with HCT-116.
Assay [17] relates to SK-MEL-5.

Regarding `CN(C)C(c1ccccc1)C(O)c1ccccc1` (centres undefined), the GI50 was > 100 µM (inactive) in assay [1]; > 100 µM (inactive) in assay [2]; > 100 µM (inactive) in assay [3]; above 100 µM in assay [4]; > 100 µM (inactive) in [5]; > 100 µM (inactive) in assay [6]. Further, the GI50 in assay [7], in assay [8], in assay [9], in assay [10], in assay [11] and in assay [12] was > 100 µM (inactive) throughout. For the same compound, the GI50 in assay [13], in assay [14] and in [15] was > 100 µM (inactive) in each case.
With `COC(=O)/C(=N\NC(N)=O)C(C(=O)C=C(C)C)C(=O)C(=O)Nc1ccc(Cl)c(Cl)c1` (centres undefined), the GI50 was > 100 µM (inactive) in [1]; > 100 µM (inactive) in assay [2]; > 100 µM (inactive) in [3]; > 100 µM (inactive) in [16]; above 100 µM in [4]; > 100 µM (inactive) in [5]. For the same compound, the GI50 in [6], in [7], in assay [8], in [9], in [10] and in [11] was > 100 µM (inactive) each time. Also, the GI50 in assay [12], in assay [13], in assay [17], in [14] and in [15] was > 100 µM (inactive) each time.
Take `CCCCCC(=O)OCCOCCOCCOCCOCCOCc1ccccc1`: the GI50 was > 100 µM (inactive) in assay [1]; > 100 µM (inactive) in [2]; > 100 µM (inactive) in [3]; > 100 µM (inactive) in assay [16]; above 100 µM in assay [4]; > 100 µM (inactive) in assay [5]. For the same compound, the GI50 in assay [6], in assay [7], in assay [8], in assay [10], in [11] and in [12] was > 100 µM (inactive) throughout. The GI50 in [13], in [17], in assay [14] and in assay [15] was > 100 µM (inactive) throughout.
On to `COC(=O)/C(=N/NC(=O)C[N+](C)(C)C)C(C(=O)OC)C(=O)C(=O)Nc1ccc(F)cc1` (centres undefined), for which the GI50 in assay [1] is > 100 µM (inactive); in [2], > 100 µM (inactive); in assay [3] it was > 100 µM (inactive); in assay [16], > 100 µM (inactive); in assay [4], above 100 µM; in [5] it was > 100 µM (inactive). Moreover, the GI50 in assay [6], in [7], in assay [8], in [9], in assay [10] and in [11] was > 100 µM (inactive) throughout. The GI50 in assay [12], in [13], in assay [17], in assay [14] and in assay [15] was > 100 µM (inactive) in each case.
With `Cc1cc2c(c(C(=O)O)c1C)-c1cccc(Cl)c1C2=O`, the GI50 in assay [1] is > 100 µM (inactive); in assay [2], > 100 µM (inactive); in [3], > 100 µM (inactive); in assay [4] it was above 100 µM; in assay [5], > 100 µM (inactive); in assay [6], > 100 µM (inactive). In addition, the GI50 in assay [7], in [8], in [9], in [10], in assay [11] and in [12] was > 100 µM (inactive) in each case. Further, the GI50 in [13], in [17], in [14] and in assay [15] was > 100 µM (inactive) each time.
As for `CCN(CC)c1ccc(/N=C2/C=CC(=C(C#N)C#N)c3ccccc32)c(C)c1`, the GI50 is 2.59 µM (inactive) in [1]; 1.72 µM (inactive) in assay [2]; 2.64 µM (inactive) in assay [3]; 1.95 µM (inactive) in assay [16]; 2.15 µM in assay [4]; 2.2 µM (inactive) in assay [5]. The GI50 in assay [6] was 1.95 µM (inactive); in assay [8], 1.72 µM (inactive); in assay [9], 1.96 µM (inactive); in [10], 1.87 µM (inactive); in assay [11], 1.86 µM (inactive); in assay [12], 1.08 µM (active). Also, the GI50 in assay [13] was 2.08 µM (inactive); in assay [17], 1.58 µM (inactive); in assay [14], 3.78 µM (inactive); in [15], 1.38 µM (inactive).
With `C=CCN(N=O)C(=O)N(CCCC(NC(C)=O)C(=O)NCc1ccccc1)Cc1ccccc1` (centres undefined), the GI50 in assay [1] was 54.7 µM (inactive); in assay [2], 30.5 µM (inactive); in assay [3], 90.4 µM (inactive); in assay [4], 73.8 µM; in [5] it was > 100 µM (inactive); in assay [6], 42.2 µM (inactive). Also, the GI50 in [7] was 42.4 µM (inactive); in assay [8], 46.9 µM (inactive); in [9] it was 16.9 µM (inactive); in [10] it was 98.4 µM (inactive); in [11], 31 µM (inactive); in assay [12] it was 42.2 µM (inactive). The GI50 in assay [13] is > 100 µM (inactive); in assay [17], 31.1 µM (inactive); in [14], 82.6 µM (inactive); in assay [15] it was 49.8 µM (inactive).
In the case of `O=C(/C=C1/NC(=O)CS1)Nc1ccccc1`, the GI50 in assay [2], in assay [3], in [16], in assay [5], in assay [6] and in assay [7] was > 100 µM (inactive) in each case. The GI50 in [8] was > 10 µM (inactive); in assay [9] it was > 100 µM (inactive); in assay [10], 30.8 µM (inactive); in assay [11], > 100 µM (inactive); in [12], > 100 µM (inactive); in [13], 89.5 µM (inactive). The GI50 in [17], in [14] and in assay [15] was > 100 µM (inactive) each time.
On to `Cc1ccccc1NC(=O)Cc1nc2ccccc2s1`, for which the GI50 in assay [1] is 15.4 µM (inactive); in assay [2], 17.7 µM (inactive); in [3], 30.7 µM (inactive); in [16] it was 16.5 µM (inactive); in assay [5], > 10 µM (inactive); in assay [6], 18.4 µM (inactive). Moreover, the GI50 is 16.7 µM (inactive) in [7]; 16.7 µM (inactive) in assay [8]; 17.9 µM (inactive) in assay [9]; 15.8 µM (inactive) in assay [10]; 18 µM (inactive) in [11]; 18.9 µM (inactive) in assay [12]. The GI50 in assay [13] is 16 µM (inactive); in assay [17], 51.2 µM (inactive); in assay [14] it was 29.7 µM (inactive); in assay [15] it was 19.4 µM (inactive).
